This data set in a line: Solubilization of ziprasidone mesylate in concentrated aqueous SBECD solution (concentration, HPLC potency). It is filed as physicochemical. The procedure: This particular example employs a high concentration of SBECD to form an aqueous solution of ziprasidone at about 80 mgA/ml with about 56% SBECD. To facilitate drug dissolution, a pre-weighed amount of SBECD (gram weight SBECD equivalent to ml of depot formulation being prepared) was dissolved in water by heating in a water bath at 50° C. Ziprasidone mesylate was added in about 50 mg increments while heat was supplied to maintain the system at 50-60° C. A total of 572.99 mg Ziprasidone mesylate was added to 3 ml of 100% SBECD solution resulting in formation of 140 mgA/ml (191 mg/ml) clear viscous solution. The above solution was cooled to room temperature, and the solution remained clear for 2 weeks. Due to volume expansion, the final concentration of ziprasidone was about 80 mgA/ml with 56% cyclodextrin.
The stock solution was prepared using the same method as described above, however due to the higher solution volume (20 ml), the dissolution time was much longer (over 4 hours) even though micronized ziprasidone mesylate was used. During compounding, significant volume expansion was noted. To correct for the volume expansion, the specific gravity of the solution was determined to be 1.188 gm/ml. The volume of water used to prepare this solution was 20 ml, however, the final volume of the solution was 36.6 ml, and the weight of the solution was 43.5 gm. Therefore, taking into consideration 83% volume expansion, the corrected concentrations of drug and SBECD in this solution are 77 mgA/ml and 55% w/v, respectively.
The extent of solubilization was further confirmed by preparation of 82 mgA/ml ziprasidone solution with 59% SBECD using the same method. Viscosity was greater than 160 cps.

`O=C1Cc2cc(CCN3CCN(c4nsc5ccccc45)CC3)c(Cl)cc2N1` [ziprasidone]: the “corrected concentration of drug in solution” value (55% w/v SBECD, corrected for 83% volume expansion, scaled-up stock solution) is 77 mgA/ml. Further, the “potency of solution by HPLC potency method” value (scaled-up stock solution, 55% w/v SBECD) is given as 75 mgA/ml. The “final concentration of ziprasidone in clear aqueous solution” value (with 56% cyclodextrin (SBECD), after volume expansion) was “about 80 mgA/ml”.

The record behind these values is patent US20040138237A1, “Novel injectable depot formulations” (Pfizer Inc, priority 2002, published 2004).
